Results reported in PubChem BioAssay (NCI).
Values after ≈ are worked out from the molar mass of the structure shown.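 Growth conditions: 96-well plates. Treatment: test compound, 48 hours, 5 concentrations. Analysis: linear interpolation between bracketing concentrations; unreached endpoints set to highest concentration. At the GI50, growth is halved. At the TGI there is no net growth.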 Non-standard residues stand in square brackets, D forms with d. Residues, ends and D or L forms follow the SMILES beside them. ξ: configuration not given here. *: point of attachment. Boc = CC(C)(C)OC(=O)*; ξV = CC(C)C(N)C(=O)O; OBn = c1ccc(CO*)cc1

Experiments:
Experiment in all cases: inhibition of tumour cell growth, NCI panel, 48 h
HT29 colon = tested on: HT29 colon
HCT-116 colon = tested on: HCT-116 colon
UO-31 renal = tested on: UO-31 renal
LOX IMVI melanoma = tested on: LOX IMVI melanoma
HS 578T breast = tested on: HS 578T breast
HCT-15 colon = tested on: HCT-15 colon
RXF 393 renal = tested on: RXF 393 renal
SK-OV-3 ovarian = tested on: SK-OV-3 ovarian
SK-MEL-28 melanoma = tested on: SK-MEL-28 melanoma
TK-10 renal = tested on: TK-10 renal
COLO 205 colon = tested on: COLO 205 colon
MDA-MB-435 = tested on: MDA-MB-435
T-47D breast = tested on: T-47D breast
RPMI-8226 leukemia = tested on: RPMI-8226 leukemia
NCI-H226 lung = tested on: NCI-H226 lung
NCI/ADR-RES ovarian = tested on: NCI/ADR-RES ovarian
KM12 colon = tested on: KM12 colon
NCI-H23 lung = tested on: NCI-H23 lung
OVCAR-4 ovarian = tested on: OVCAR-4 ovarian
SF-295 CNS = tested on: SF-295 CNS
ACHN renal = tested on: ACHN renal
SK-MEL-5 melanoma = tested on: SK-MEL-5 melanoma
A549 NSCLC = tested on: A549 NSCLC
SW-620 colon = tested on: SW-620 colon
OVCAR-5 ovarian = tested on: OVCAR-5 ovarian
HCC-2998 colon = tested on: HCC-2998 colon
HOP-62 NSCLC = tested on: HOP-62 NSCLC
UACC-257 melanoma = tested on: UACC-257 melanoma
K-562 leukemia = tested on: K-562 leukemia
PC-3 prostate = tested on: PC-3 prostate
A498 renal = tested on: A498 renal
CAKI-1 renal = tested on: CAKI-1 renal
HOP-92 NSCLC = tested on: HOP-92 NSCLC
SR leukemia = tested on: SR leukemia
SNB-19 CNS = tested on: SNB-19 CNS
786-0 renal = tested on: 786-0 renal
NCI-H522 lung = tested on: NCI-H522 lung
MDA-MB-231 breast = tested on: MDA-MB-231 breast
SK-MEL-2 melanoma = tested on: SK-MEL-2 melanoma
MDA-N = tested on: MDA-N
SNB-75 CNS = tested on: SNB-75 CNS
HL-60(TB) leukemia = tested on: HL-60(TB) leukemia
MCF7 breast = tested on: MCF7 breast
CCRF-CEM leukemia = tested on: CCRF-CEM leukemia
SN12C renal = tested on: SN12C renal
SF-268 CNS = tested on: SF-268 CNS
MALME-3M melanoma = tested on: MALME-3M melanoma
OVCAR-8 ovarian = tested on: OVCAR-8 ovarian
DU-145 prostate = tested on: DU-145 prostate
SF-539 CNS = tested on: SF-539 CNS
OVCAR-3 ovarian = tested on: OVCAR-3 ovarian
IGROV1 ovarian = tested on: IGROV1 ovarian
EKVX NSCLC = tested on: EKVX NSCLC
U251 CNS = tested on: U251 CNS
M14 melanoma = tested on: M14 melanoma
MOLT-4 leukemia = tested on: MOLT-4 leukemia
BT-549 breast = tested on: BT-549 breast
UACC-62 melanoma = tested on: UACC-62 melanoma
NCI-H460 lung = tested on: NCI-H460 lung

CCCCCCCC/C=C\CCCCCCC(F)C(=O)O (stereo unspecified) was tested, and the TGI (HT29 colon) was > 12.5 µM, the TGI (HCT-116 colon) was > 12.5 µM and the TGI (UO-31 renal) was > 12.5 µM. The TGI (LOX IMVI melanoma) was > 12.5 µM, the TGI (HS 578T breast) was > 12.5 µM and the TGI (HCT-15 colon) was > 12.5 µM. The TGI (RXF 393 renal) was > 12.5 µM, the TGI (SK-OV-3 ovarian) was > 12.5 µM and the TGI (SK-MEL-28 melanoma) was > 12.5 µM. For the same molecule, the TGI (TK-10 renal) was > 12.5 µM, the TGI (COLO 205 colon) was > 12.5 µM and the TGI (MDA-MB-435) was > 12.5 µM. The TGI (T-47D breast) was > 12.5 µM, the TGI (RPMI-8226 leukemia) was > 12.5 µM and the TGI (NCI-H226 lung) was > 12.5 µM. The TGI (NCI/ADR-RES ovarian) was > 12.5 µM, the TGI (KM12 colon) was > 12.5 µM and the TGI (NCI-H23 lung) was > 12.5 µM. The TGI (OVCAR-4 ovarian) was > 12.5 µM, the TGI (SF-295 CNS) was > 12.5 µM and the TGI (ACHN renal) was > 12.5 µM. The TGI (SK-MEL-5 melanoma) was > 12.5 µM, the TGI (A549 NSCLC) was > 12.5 µM and the TGI (SW-620 colon) was > 12.5 µM. The TGI (OVCAR-5 ovarian) was > 12.5 µM, the TGI (HCC-2998 colon) was > 12.5 µM and the TGI (HOP-62 NSCLC) was > 12.5 µM. For the same molecule, the TGI (UACC-257 melanoma) was > 12.5 µM, the TGI (K-562 leukemia) was > 12.5 µM and the TGI (PC-3 prostate) was > 12.5 µM. For the same molecule, the TGI (A498 renal) was > 12.5 µM, the TGI (CAKI-1 renal) was > 12.5 µM and the TGI (HOP-92 NSCLC) was > 12.5 µM. The TGI (SR leukemia) was > 12.5 µM, the TGI (SNB-19 CNS) was > 12.5 µM and the TGI (786-0 renal) was > 12.5 µM. The TGI (NCI-H522 lung) was > 12.5 µM, the TGI (MDA-MB-231 breast) was > 12.5 µM and the TGI (SK-MEL-2 melanoma) was > 12.5 µM. For the same molecule, the TGI (MDA-N) was > 12.5 µM, the TGI (SNB-75 CNS) was > 12.5 µM and the TGI (HL-60(TB) leukemia) was > 12.5 µM. The TGI (MCF7 breast) was > 12.5 µM, the TGI (CCRF-CEM leukemia) was > 12.5 µM and the TGI (SN12C renal) was > 12.5 µM. The TGI (SF-268 CNS) was > 12.5 µM, the TGI (MALME-3M melanoma) was > 12.5 µM and the TGI (OVCAR-8 ovarian) was > 12.5 µM. For the same molecule, the TGI (DU-145 prostate) was > 12.5 µM, the TGI (SF-539 CNS) was > 12.5 µM and the TGI (OVCAR-3 ovarian) was > 12.5 µM. The TGI (IGROV1 ovarian) was > 12.5 µM, the TGI (EKVX NSCLC) was > 12.5 µM and the TGI (U251 CNS) was > 12.5 µM. For the same molecule, the TGI (M14 melanoma) was > 12.5 µM and the TGI (MOLT-4 leukemia) was > 12.5 µM.

CC(C)C(NC(=O)OC(C)(C)C)C(=O)NCC(=O)OCc1ccccc1 (stereo unspecified) (Boc-[ξV]-Gly-OBn) showed a GI50 (HCT-116 colon) of 22 µg/mL (≈ 60.3 µM), a TGI (HCT-116 colon) of 52.6 µg/mL and a GI50 (HS 578T breast) of 98.2 µg/mL (≈ 269 µM). It also gave a GI50 (HCT-15 colon) of 31.9 µg/mL (≈ 87.6 µM), a GI50 (COLO 205 colon) of 19.7 µg/mL (≈ 53.9 µM) and a TGI (COLO 205 colon) of 40.9 µg/mL. It also gave a GI50 (MDA-MB-435) of 44.5 µg/mL (≈ 122 µM), a GI50 (RPMI-8226 leukemia) of 36.1 µg/mL (≈ 99 µM) and a TGI (RPMI-8226 leukemia) of 86.1 µg/mL. It also gave a GI50 (KM12 colon) of 51.9 µg/mL (≈ 142 µM), a GI50 (HCC-2998 colon) of 48.2 µg/mL (≈ 132 µM) and a GI50 (K-562 leukemia) of 18.3 µg/mL (≈ 50.3 µM). The TGI (K-562 leukemia) was 75.1 µg/mL, the GI50 (786-0 renal) was 24 µg/mL (≈ 65.9 µM) and the TGI (786-0 renal) was 71.9 µg/mL. For the same molecule, the GI50 (NCI-H522 lung) was 30 µg/mL (≈ 82.2 µM), the GI50 (MDA-MB-231 breast) was 43 µg/mL (≈ 118 µM) and the GI50 (SK-MEL-2 melanoma) was 22.5 µg/mL (≈ 61.7 µM). For the same molecule, the TGI (SK-MEL-2 melanoma) was 69.2 µg/mL, the GI50 (MDA-N) was 57.5 µg/mL (≈ 158 µM) and the GI50 (HL-60(TB) leukemia) was 17.3 µg/mL (≈ 47.5 µM). It also gave a TGI (HL-60(TB) leukemia) of 44.2 µg/mL, a GI50 (MCF7 breast) of 87 µg/mL (≈ 239 µM) and a GI50 (CCRF-CEM leukemia) of 0.594 µg/mL (≈ 1.63 µM). The TGI (CCRF-CEM leukemia) was 30.8 µg/mL, the GI50 (OVCAR-3 ovarian) was 48.8 µg/mL (≈ 134 µM) and the GI50 (U251 CNS) was 94.9 µg/mL (≈ 260 µM). It also gave a GI50 (M14 melanoma) of 35.9 µg/mL (≈ 98.4 µM) and a GI50 (MOLT-4 leukemia) of 52.7 µg/mL (≈ 145 µM).

For O=C(NC1CCC(=O)N1C(=O)OCc1ccccc1)OCc1ccccc1 (stereo unspecified), the TGI (HT29 colon) was > 100 µM, the TGI (UO-31 renal) was > 100 µM and the TGI (HS 578T breast) was > 100 µM. The TGI (HCT-15 colon) was > 100 µM, the TGI (RXF 393 renal) was > 100 µM and the TGI (SK-OV-3 ovarian) was > 100 µM. For the same molecule, the TGI (SK-MEL-28 melanoma) was > 100 µM, the TGI (TK-10 renal) was > 100 µM and the TGI (COLO 205 colon) was > 100 µM. The TGI (MDA-MB-435) was > 100 µM, the TGI (RPMI-8226 leukemia) was > 100 µM and the TGI (NCI-H226 lung) was > 100 µM. The TGI (NCI/ADR-RES ovarian) was > 100 µM, the TGI (KM12 colon) was > 100 µM and the TGI (NCI-H23 lung) was > 100 µM. The TGI (SF-295 CNS) was > 100 µM, the TGI (BT-549 breast) was > 100 µM and the TGI (ACHN renal) was > 100 µM. For the same molecule, the TGI (SK-MEL-5 melanoma) was > 100 µM, the TGI (A549 NSCLC) was > 100 µM and the TGI (SW-620 colon) was > 100 µM. For the same molecule, the TGI (OVCAR-5 ovarian) was > 100 µM, the TGI (HCC-2998 colon) was > 100 µM and the TGI (HOP-62 NSCLC) was > 100 µM. For the same molecule, the TGI (UACC-257 melanoma) was > 100 µM, the TGI (K-562 leukemia) was > 100 µM and the TGI (PC-3 prostate) was > 100 µM. The TGI (CAKI-1 renal) was > 100 µM, the TGI (HOP-92 NSCLC) was > 100 µM and the TGI (SR leukemia) was > 100 µM. The TGI (SNB-19 CNS) was > 100 µM, the TGI (786-0 renal) was > 100 µM and the TGI (NCI-H522 lung) was > 100 µM. The TGI (MDA-MB-231 breast) was > 100 µM, the TGI (SK-MEL-2 melanoma) was > 100 µM and the TGI (MDA-N) was > 100 µM. The TGI (SNB-75 CNS) was > 100 µM, the TGI (MCF7 breast) was > 100 µM and the TGI (UACC-62 melanoma) was > 100 µM. The TGI (SN12C renal) was > 100 µM, the TGI (SF-268 CNS) was > 100 µM and the TGI (MALME-3M melanoma) was > 100 µM. For the same molecule, the TGI (NCI-H460 lung) was > 100 µM, the TGI (OVCAR-8 ovarian) was > 100 µM and the TGI (DU-145 prostate) was > 100 µM. The TGI (SF-539 CNS) was > 100 µM, the TGI (OVCAR-3 ovarian) was > 100 µM and the TGI (IGROV1 ovarian) was > 100 µM. For the same molecule, the TGI (U251 CNS) was > 100 µM, the TGI (M14 melanoma) was > 100 µM and the TGI (MOLT-4 leukemia) was > 100 µM.
